Measured values from patent US11160282B2, “Use of a composition and method for reducing bacterial spores in pulp suspension” (Kemira Oyj, priority 2016, dated 2021).

Key:
Format in all cases: cell-based
aerobic spores [1] = assay: Example 5: pilot paper machine test, aerobic spores in dry paper (ISO 8784-1); settings: glutaraldehyde alone, 50 ppm as active agent, 5 min post-treatment of pulp suspension (reference paper)
Method: This test was performed in a pilot paper machine producing 1-ply paper. Aim of the test was to verify efficacy of the invention to provide a low quantity of aerobic bacteria and aerobic bacterial spores in dry paper end-product. Composition 1-5 comprising 40 weight-% of dodecylamine, 40 weight-% of dipropylene glycol and 20 weight-% of water was used according to the invention. It was dosed as 100, 150 or 300 mg/l into pulp suspension with 2.25% consistency. The pulp suspension was then mixed 120 rpm for 30 min at +40° C. The pulp suspension was made from a batch of authentic, spore-contaminated folding-box board with average spore content of 7000 cfu/gram of dry board. All pulp suspensions in the pilot paper machine were also post-treated (5 min, 120 rpm) with glutaraldehyde (dose: 50 ppm as active agent) in order to maintain control of vegetative bacterial cells in the pilot machine. Total aerobic bacteria (without pasteurization) and aerobic spores (with pasteurization step at +82° C. for 10 min) were quantified from the dry paper end product according to the ISO 8784-1 standard for microbiological examination of paper and board.

total aerobes = assay: Example 4 (reference): laboratory test, broke sample, total aerobes count; settings: broke 1.0% consistency, pH 7.8, ORP +146 mV; 10 ppm active chlorine, 1 day contact time; untreated 650 000 cfu/ml
Method: (§1) This laboratory test was performed in order to test killing effect of sodium hypochlorite against total aerobes and aerobic spores in broke sample (consistency 1.0%, pH 7.8, ORP +146 mV) taken from an alkaline board machine, which produces 3-ply food packaging board. Total aerobes and aerobic spore counts were quantitated by using plate count agar (+45° C./+37° C., 2 days incubation). Prior to the bacterial spore determination, samples were pasteurized at +80° C. for 20 min.

aerobic spores [2] = assay: Example 4 (reference): laboratory test, broke sample, aerobic spore count; settings: broke 1.0% consistency, pH 7.8, ORP +146 mV; 10 ppm active chlorine, 1 day contact time; untreated 70 cfu/ml
Method: as §1

| Structure (SMILES) | effect on spore contamination in the produced paper (aerobic spores [1]) | total aerobes (total aerobes) | aerobic spores (aerobic spores [2]) [cfu/ml] |
| --- | --- | --- | --- |
| O=CCCCC=O [glutaraldehyde] | not alone capable to lower spore contamination |  |  |
| OCl [Sodium hypochlorite, sodium hypochlorite] |  | 390 000 cfu/ml | 60 |
